Measurements: US10058566B2, “Sulfated polygulonic acid polysaccharide or pharmaceutical salt thereof, preparation method therefor and use thereof” (SHANGHAI INSTITUTE OF MATERIA MEDICA CHINESE ACADEMY OF …, priority 2013, dated 2018)

Columns and labels:
[1] = test system: human breast cancer MDA-MB-435 orthotopic xenografts; assay: Growth of human breast cancer MDA-MB-435 orthotopic xenografts in nude mice; assay type: in vivo, nude mice (BALB/cA); settings: 5 mg/kg, intravenous injection once per week for 7 continuous weeks
Procedure: (§1) Human breast cancer MDA-MB-435 cells (from American Type Culture Collection, ATCC, Rockville, Md., USA) in an exponential growth phase at a concentration of 2.5×10^7 cells/ml were inoculated into the second left mammary fat pad of 4-5-week old female nude mice (BALB/cA, provided by Shanghai Institute of Materia Medica, Chinese Academy of Sciences). When the tumors were grown to the size of 100-200 mm^3, the animals were evenly divided according tumor volumes into a negative control group, a doxorubicin injection (Adriamycin, ADM) treatment group (positive control group), and 5 mg/kg and 20 mg/kg PGAS treatment groups (PGAS experimental groups), 20 mice/group. […] In the experiments, a vernier caliper was used to measure the diameter of tumors twice a week, and the tumor volume (V) was calculated following the formula below: V=½×a×b^2
in which, a and b represent the length and the width of tumors, respectively. The relative tumor volume (RTV) was calculated based on the measured results, using the calculation formula: RTVt=Vt/Vo; in which, V0 is the measured tumor volume when animals were divided to different dosing (i.e. d0), and Vt is the tumor volume on the day of measurement. […]
(§2) At this point of time, the animals are sacrificed and subjected to anti-tumor effect evaluation. […] Further, the effect of PGAS on angiogenesis in vivo was evaluated by immunohistochemical staining.

[2] = test system: lung metastasis of human breast cancer MDA-MB-435 orthotopic xenografts; assay: Lung metastasis of human breast cancer MDA-MB-435 orthotopic xenografts; assay type: in vivo, nude mice (BALB/cA); settings: 5 mg/kg, intravenous injection once per week for 7 continuous weeks
Procedure: as §1
The animals were sacrificed 1 week after discontinuation of dosing. […] The number of lung metastasis nodes per lung was observed and recorded under a dissecting microscope. […] A part of lungs and orthotopic tumor tissues were fixed in 10% formalin, and angiogenesis in tumor tissues was determined by H&E staining and immunohistochemistry.
as §2

COc1cccc2c1C(=O)c1c(O)c3c(c(O)c1C2=O)C[C@@](O)(C(=O)CO)C[C@@H]3O[C@H]1C[C@H](N)[C@H](O)[C@H](C)O1 [ADM, Doxorubicin]
relative tumor proliferation rate T/C [1]: 21.8%
inhibition rate on lung metastasis [2]: 89.8%
